# Source: EPA's ToxRefDB 2
# How the values were obtained:
# [1] = tested on: rat; conditions: Combined chronic toxicity/carcinogenicity, other, Oral, Feed, dose end: 105 week
# [2] = tested on: mouse; conditions: Carcinogenicity, b6c3f1, Oral, Feed, dose end: 104 week
# [3] = tested on: mouse; conditions: Combined chronic toxicity/carcinogenicity, b6c3f1, Oral, Feed, dose end: 2 year
# [4] = tested on: dog; conditions: Subchronic oral toxicity in nonrodent, beagle, Capsule, dose end: 5 month
# [5] = tested on: rat; conditions: Prenatal developmental toxicity study, sprague dawley, Oral, Gavage/Intubation, dose end: 19 GD
# [6] = tested on: rat; conditions: Prenatal developmental toxicity study, wistar, Oral, Gavage/Intubation, dose end: 15 GD
# [7] = tested on: rabbit; conditions: Prenatal developmental toxicity study, new zealand white, Oral, Gavage/Intubation, dose end: 19 GD
# [8] = tested on: rat; conditions: Prenatal developmental toxicity study, sprague dawley, Oral, Gavage/Intubation, dose end: 15 GD
# [9] = group: cholinesterase, cholinesterase / cholinesterase / cholinesterase / brain cholinesterase (che) + cholinesterase / cholinesterase / cholinesterase / …
# [10] = group: systemic, systemic / hematology / erythrocyte (rbc) count differential / erythrocyte (rbc) + systemic / hematology / hematocrit (hct) / hematocrit (…
# [11] = group: cholinesterase, cholinesterase / cholinesterase / cholinesterase / erythrocyte cholinesterase (che) + cholinesterase / cholinesterase / cholinesterase / …
# [12] = group: systemic, systemic / organ weight / lung / absolute
# [13] = group: systemic, systemic / in life observation / body weight / body weight gain + systemic / pathology microscopic / kidney / regeneration
# [14] = group: cholinesterase, cholinesterase / cholinesterase / cholinesterase / plasma cholinesterase (che)
# [15] = group: cholinesterase, cholinesterase / cholinesterase / cholinesterase / plasma cholinesterase (che) + cholinesterase / cholinesterase / cholinesterase / brain …
# [16] = group: systemic, systemic / in life observation / clinical signs / soft stools
# [17] = group: developmental, developmental / developmental malformation / bone / bipartite ossification + developmental / developmental malformation / bone / …
# [18] = group: maternal, systemic / in life observation / body weight / body weight + systemic / in life observation / clinical signs / abnormal gait + systemic / in…
# [19] = group: developmental, developmental / developmental malformation / general / [other]
# [20] = group: maternal, systemic / in life observation / body weight / body weight + systemic / in life observation / food consumption / food consumption
# [21] = group: developmental, systemic / in life observation / body weight / fetal weight
# [22] = group: maternal, reproductive / reproductive performance / implantations / implantations + systemic / in life observation / body weight / body weight gain + …
# [23] = group: maternal, systemic / in life observation / body weight / body weight + systemic / in life observation / body weight / body weight gain + systemic / in…
smiles,measurement,setting,value
CCCSP(=O)(OCC)SCCC [Ethoprop],LEL,[1]; [9],3 mg/kg/day
same,LOAEL,[1]; [9],3 mg/kg/day
same,NEL,[1]; [9],0.05 mg/kg/day
same,NOAEL,[1]; [9],0.05 mg/kg/day
same,LEL,[1]; [10],20 mg/kg/day
same,LOAEL,[1]; [10],20 mg/kg/day
same,NOAEL,[1]; [10],3 mg/kg/day
same,NEL,"[1]; group: systemic, systemic / organ weight / kidney / relative to body weight + systemic / organ weight / thyroid gland / relative to body weight",3 mg/kg/day
same,LEL,[2]; [11],0.254 mg/kg/day
same,LOAEL,[2]; [11],0.254 mg/kg/day
same,NEL,[2]; [11],0.026 mg/kg/day
same,NOAEL,[2]; [11],0.026 mg/kg/day
same,LOAEL,"[2]; group: systemic, systemic / in life observation / body weight / body weight + systemic / in life observation / body weight / body weight gain",3.96 mg/kg/day
same,NOAEL,"[2]; group: systemic, systemic / in life observation / body weight / body weight + systemic / in life observation / body weight / body weight gain + systemic / in…",0.254 mg/kg/day
same,LEL,[2]; [12],0.032 mg/kg/day
same,NEL,[2]; [12],< 0.032 mg/kg/day
same,LEL,[3]; [11],0.306 mg/kg/day
same,LOAEL,[3]; [11],0.306 mg/kg/day
same,NEL,[3]; [11],0.032 mg/kg/day
same,NOAEL,[3]; [11],0.032 mg/kg/day
same,LOAEL,"[3]; group: systemic, systemic / in life observation / body weight / body weight gain",4.44 mg/kg/day
same,NEL,[3]; [13],0.032 mg/kg/day
same,NOAEL,[3]; [13],0.306 mg/kg/day
same,LEL,"[3]; group: systemic, systemic / pathology microscopic / kidney / regeneration",0.306 mg/kg/day
same,LEL,[4]; [14],0.025 mg/kg/day
same,LOAEL,[4]; [14],0.025 mg/kg/day
same,NEL,[4]; [15],0.01 mg/kg/day
same,NOAEL,[4]; [15],0.01 mg/kg/day
same,LEL,[4]; [16],0.025 mg/kg/day
same,LOAEL,[4]; [16],> 1 mg/kg/day
same,NEL,[4]; [16],0.01 mg/kg/day
same,NOAEL,[4]; [16],≥ 1 mg/kg/day
"OC(CCl)CCl [1,3-Dichloro-2-propanol]",LEL,[5]; [17],90 mg/kg/day
same,LOAEL,[5]; [17],> 90 mg/kg/day
same,NEL,[5]; [17],30 mg/kg/day
same,NOAEL,[5]; [17],≥ 90 mg/kg/day
same,LOAEL,[5]; [18],> 90 mg/kg/day
same,NEL,[5]; [18],10 mg/kg/day
same,NOAEL,[5]; [18],≥ 90 mg/kg/day
same,LEL,"[5]; group: maternal, systemic / in life observation / clinical signs / motor activity + systemic / in life observation / food consumption / food consumption + …",30 mg/kg/day
"OCC#CCO [2-Butyne-1,4-diol]",LEL,[6]; [19],80 mg/kg/day
same,LOAEL,[6]; [19],> 80 mg/kg/day
same,NEL,[6]; [19],40 mg/kg/day
same,NOAEL,[6]; [19],≥ 80 mg/kg/day
same,LEL,[6]; [20],80 mg/kg/day
same,LOAEL,[6]; [20],> 80 mg/kg/day
same,NEL,[6]; [20],40 mg/kg/day
same,NOAEL,[6]; [20],≥ 80 mg/kg/day
CN(C)c1ccc(C(=C2C=CC(=[N+](C)C)C=C2)c2ccc(N(C)C)cc2)cc1.[Cl-] [Gentian Violet],LEL,[7]; [21],0.5 mg/kg/day
same,LOAEL,[7]; [21],> 2 mg/kg/day
same,NEL,[7]; [21],< 0.5 mg/kg/day
same,NOAEL,[7]; [21],≥ 2 mg/kg/day
same,LEL,[7]; [22],0.5 mg/kg/day
same,LOAEL,[7]; [22],> 2 mg/kg/day
same,NEL,[7]; [22],< 0.5 mg/kg/day
same,NOAEL,[7]; [22],≥ 2 mg/kg/day
same,LEL,[8]; [19],10 mg/kg/day
same,LOAEL,[8]; [19],> 10 mg/kg/day
same,NEL,[8]; [19],5 mg/kg/day
same,NOAEL,[8]; [19],≥ 10 mg/kg/day
same,LOAEL,[8]; [23],> 10 mg/kg/day
same,NEL,[8]; [23],2.5 mg/kg/day
same,NOAEL,[8]; [23],≥ 10 mg/kg/day
same,LEL,"[8]; group: maternal, systemic / in life observation / body weight / body weight gain",5 mg/kg/day
